Results published in patent publication US10342758B2, “Cationic lipid” (Kyowa Hakko Kirin Co., Ltd., priority 2012, dated 2019).

Legend:
[1] = Average particle diameter of preparation (Zetasizer Nano ZS); assay type: physicochemical; conditions: preparation with apo-b siRNA; compound/PEG-DMPE Na/DSPC/cholesterol; Example 49 / Comparative Example 1
[2] = as above; assay type: physicochemical; conditions: preparation with f7 siRNA
Procedure: The average particle diameter of each preparation (composition) was measured using a particle diameter measurement device (Zetasizer Nano ZS, manufactured by Malvern, hereafter the same).
The average particle diameter of each preparation (composition) was measured using a particle diameter measurement device.
Each sample was weighed and suspended in an aqueous solution containing hydrochloric acid and ethanol so that the ratio of Compound A-1/PEG-DMPE Na (manufactured by NOF Corporation) was 57.3/5.52 mmol/L, and then, the resulting mixture was repeatedly subjected to stirring using a vortex stirring mixer and heating, whereby a uniform suspension was obtained. This suspension was passed through a 0.2-μm polycarbonate membrane filter and thereafter passed through a 0.05-μm polycarbonate membrane filter at room temperature, whereby a dispersion liquid of particles (liposome) of Compound A-1/PEG-DMPE Na was obtained. The average particle diameter of the obtained liposome was measured using a particle diameter measuring apparatus to confirm that the average particle diameter was within the range from 30 nm to 100 nm. In the obtained dispersion liquid of liposome, the f7 siRNA solution was mixed at a ratio of the dispersion liquid of liposome to the fl siRNA solution of 3:1, and then, distilled water that was three times the amount was added thereto and mixed therewith, whereby a dispersion liquid of Compound A-1/PEG-DMPE Na/f7 siRNA complex was prepared.
The average particle diameter of the preparation (composition) was measured using a particle diameter measurement device.

apo-b gene mRNA = test: Expression ratio of apo-b mRNA after introduction of preparations into HepG2 cells; assay type: cell-based, human; conditions: nucleic acid 3 to 100 nM, 24 hours, composition with apo-b siRNA (FIG. 1)
Source text: Each of the preparation: obtained in Example 49 (the compositions containing any of Compounds A-1, and A-3 to A-5, and the nucleic acid) and the preparations obtained in Comparative Example 1 (the compositions containing any of DLin-KC2-DMA and Compounds XI-1 to XI-3, and the nucleic acid) was introduced into cells of human liver cancer-derived cell line HepG2 (HB-8065) by the following method.
Each preparation diluted with Opti-MEM (GIBCO Co., Ltd., 31985) so that the final concentration of the nucleic acid was 3 to 100 nM was dispensed in a 96-well culture plate at 20 μL/well. […]
By using the obtained cDNA as a template and also using a universal probe library (Roche Applied Science, Inc., 04683633001) as the probe and ABI7900HT Fast (manufactured by ABI, Inc.), a PCR reaction was performed according to the method described in the protocol attached thereto, so that the apo-b gene and D-glyceraldehyde-3-phosphate dehydrogenase (hereinafter, represented by “gapdh”) gene, which is a constitutively expressed gene, were subjected to the PCR reaction. Then, the amount of the amplified mRNA was measured for each gene, and a quasi-quantitative value of the apo-b mRNA was calculated using the amount of the amplified gapdh mRNA as the internal control. […]

[3] = compound/PEG-DMPE Na/DSPC/cholesterol, Examples 50, 51 / Comparative Example 2
[4] = liposome/siRNA complex encapsulated by lipid membrane, Examples 52, 53 / Comparative Example 3

| Compound | Particle diameter of Preparation obtained [2, 3] | Particle diameter of Preparation obtained [2, 4] | further results |
| --- | --- | --- | --- |
| CCCCCC/C=C\CCCCCCCCN(CCCCCCCC/C=C\CCCCCC)C(=O)OCCCN(C)C [Compound A-3, 3-(Dimethylamino)propyl di(Z)-hexadec-9-enyl) carbamate] | – | – | Particle diameter of Preparation obtained [1]: 150.0 nm |
| CCCCC/C=C\C/C=C\CCCCCCCCOCCN(CCCCCCCC/C=C\C/C=C\CCCCC)C(=O)OCCCN1CCCCCC1 [Compound A-31, 3-(Azepan-1-yl)propyl ((9Z,12Z)-octadeca-9,12-dienyl) (2-((9Z,12Z)-octadeca-9,12-dienyloxy)ethyl)carbamate] | 139.1 nm | 102.2 nm | – |
| CCCCC/C=C\C/C=C\CCCCCCCCOCCN(CCCCCCCC/C=C\C/C=C\CCCCC)C(=O)OCCC1CCCN1C (stereo not shown) [Compound A-30] | 130.4 nm | 106.2 nm | – |
| CCCCC/C=C\C/C=C\CCCCCCCCN(CCOCCCCCCCC/C=C\CCCCCCCC)C(=O)OCCC1CCCN1C (stereo not shown) [Compound A-34, 2-(1-Methylpyrrolidin-2-yl)ethyl (2-((Z)-octadec-9-enyloxy)ethyl)((9Z,12Z)-octadeca-9,12-dienyl)carbamate] | 140.2 nm | 92.6 nm | – |
| CCCCC/C=C\C/C=C\CCCCCCCCOCCN(CCCCCCCC/C=C\C/C=C\CCCCC)C(=O)OCCCN(C)C [Compound A-12, 3-(Dimethylamino)propyl ((9Z,12Z)-octadeca-9,12-dienyl)(2-((9Z,12Z)-octadeca-9,12-dienyloxy)ethyl)carbamate] | 133.0 nm | 111.5 nm | – |
| CCCCC/C=C\C/C=C\CCCCCCCCN(CCCCCCCC/C=C\C/C=C\CCCCC)C(=O)OCCN(C)C [Compound A-5, 2-(Dimethylamino)ethyl di((9Z,12Z)-octadeca-9,12-dienyl)carbamate] | 139.2 nm | 93.4 nm | – |
| CCCCCCCC/C=C\CCCCCCCCN(CCCCCCCC/C=C\CCCCCCCC)C(=O)OCC1CCCN(C)C1 (stereo not shown) [Compound A-18, (1-Methylpiperidin-3-yl)methyl di((Z)-octadec-9-enyl)carbamate] | 138.4 nm | 112.0 nm | – |
| CCCCC/C=C\C/C=C\CCCCCCCCN(CCCCCCCCCCCC)C(=O)OCCCN(C)C [Compound A-9, 3-(Dimethylamino)propyl dodecyl((9Z,12Z)-octadeca-9,12-dienyl) carbamate] | 116.4 nm | – | – |
| CCCCC/C=C\C/C=C\CCCCCCCCN(CCCCCCCC/C=C\C/C=C\CCCCC)C(=O)OCCCN1CCCCCCC1 [Compound A-28] | 132.0 nm | 111.3 nm | – |
| CCCCC/C=C\C/C=C\CCCCCCCCN(CCCCCCCC)C(=O)OCCCN(C)C [Compound A-11, 3-(Dimethylamino)propyl ((9Z,12Z)-octadeca-9,12-dienyl)(octyl)carbamate] | 153.4 nm | – | – |
| CCCCC/C=C\C/C=C\CCCCCCCCN(CCCCCCCC/C=C\C/C=C\CCCCC)C(=O)CCCCN(C)C [Compound XI-2, 5-(Dimethylamino)-N,N-di((9Z,12Z)-octadeca-9,12-dienyl)pentanamide] | – | – | expression of the apo-b gene mRNA (apo-b gene mRNA): did not suppress the expression of the apo-b gene mRNA |
| CCCCC/C=C\C/C=C\CCCCCCCCN(CCCCCCCC/C=C\C/C=C\CCCCC)C(=O)OCCCN1CCCCC1 [Compound A-7, 3-(Piperidin-1-yl)propyl di((9Z,12Z)-octadeca-9,12-dienyl)carbamate] | – | 94.6 nm | Particle diameter of Preparation obtained ([2]; compound/PEG-DMPE Na/DSPC/cholesterol=7.030/0.755/2.038/4.892 mmol/L, Example 54): 123.3 nm |
| CCCCC/C=C\C/C=C\CCCCCCCCN(CCCCCCCC/C=C\C/C=C\CCCCC)C(=O)OCC1CCCN1C (stereo not shown) [Compound A-21, (1-Methylpyrrolidin-2-yl)methyl di((9Z,12Z)-octadeca-9,12-dien-1-yl)carbamate] | 141.0 nm | 104.8 nm | – |
| CCCCC/C=C\C/C=C\CCCCCCCCOCCN(CCCCCCCC/C=C\C/C=C\CCCCC)C(=O)OCC1CCCN(C)C1 (stereo not shown) [Compound A-32, (1-Methylpiperidin-3-yl)methyl ((9Z,12Z)-octadeca-9,12-dienyl)(2-((Z,12Z)-octadeca-9,12-dienyloxy)ethyl)carbamate] | 124.6 nm | 101.4 nm | – |
| CCCCC/C=C\C/C=C\CCCCCCCCN(CCOCCCCCCCC/C=C\CCCCCCCC)C(=O)OCCCN(C)C [Compound A-35, 3-(Dimethylamino)propyl (2-((Z)-octadec-9-enyloxy)ethyl)((9Z,12Z)-octadeca-9,12-dienyl)carbamate] | 137.8 nm | 115.4 nm | – |
| CCCCC/C=C\C/C=C\CCCCCCCCN(CCCCCCCC/C=C\C/C=C\CCCCC)C(=O)OCC1CCN(C)CC1 [Compound A-14, (1-Methylpiperidin-4-yl)methyl di((9Z,12Z)-octadeca-9,12-dien-1-yl)carbamate] | 134.4 nm | 99.7 nm | – |
| CCCCC/C=C\C/C=C\CCCCCCCCCCN(CCCCCCCCCC/C=C\C/C=C\CCCCC)C(=O)OCC1CCCN(C)C1 (stereo not shown) [Compound A-20, (1-Methylpiperidin-3-yl)methyl di((11Z,14Z)-icosa-11,14-dienyl)carbamate] | 145.1 nm | 95.7 nm | – |
| CCCCC/C=C\C/C=C\CCCCCCCCNCCCCCCCC/C=C\C/C=C\CCCCC [Compound B-1, Di((9Z,12Z)-octadeca-9,12-dienyl)amine] | 160.6 nm | – | – |

The next lines start with results.

| Particle diameter of Preparation obtained [2, 3] | Particle diameter of Preparation obtained [2, 4] | Compound | further results |
| --- | --- | --- | --- |
| 114.1 nm | – | CCCCC/C=C\C/C=C\CCCCCCCCOCCN(CCOCCCCCCCC/C=C\C/C=C\CCCCC)C(=O)OCCCN(C)C [Compound XI-5, 3-(Dimethylamino)propyl bis(2-((9Z,12Z)-octadeca-9,12-dienyloxy)ethyl)carbamate, reference compound] | – |
| 125.4 nm | 91.9 nm | CCCCCCCC/C=C\CCCCCCCCN(CCCO)CCCCCCCC/C=C\CCCCCCCC [Compound C-2, 3-(Di((Z)-octadec-9-enyl)amino)propan-1-ol] | – |
| 128.0 nm | – | CCCCC/C=C\C/C=C\CCCCCCCCO[C@@H]1CN(CCCO)C[C@H]1OCCCCCCCC/C=C\C/C=C\CCCCC [Compound XI-8, 3-((3R,4R)-3,4-Bis((9Z,12Z)-octadeca-9,12-dienyloxy)pyrrolidin-1-yl)propan-1-ol, reference compound] | – |
| 142.8 nm | – | CCCCC/C=C\C/C=C\CCCCCCCCN(CCCCCCCC/C=C\C/C=C\CCCCC)CC(O)CO (stereo not shown) [Compound XI-7, 3-(Di((9Z,12Z)-octadeca-9,12-dienyl)amino)propane-1,2-diol, reference compound] | – |
| 138.4 nm | 94.1 nm | CCCCC/C=C\C/C=C\CCCCCCCCCCN(CCCO)CCCCCCCCCC/C=C\C/C=C\CCCCC [Compound C-3, 3-(Di((11Z,14Z)-icosa-11,14-dienyl)amino)propan-1-ol] | – |
| 134.9 nm | 96.4 nm | CCCCC/C=C\C/C=C\CCCCCCCCN(CCCCO)CCCCCCCC/C=C\C/C=C\CCCCC [Compound C-5, 4-(Di((9Z,12Z)-octadeca-9,12-dienyl)amino)butan-1-ol] | – |
